Test results from patent US11485751B2, “Apramycin derivatives” (WAYNE STATE UNIVERSITY, priority 2017, dated 2022).
Converted amounts (≈) assume the structure as drawn. Read-outs that look alike come from different tables or passages of the source.

Tests used:
AG173 E. coli AAC(3)-IV = assay: Antibacterial activity, clinical isolate AG173; format: cell-based
Excerpt: (§1) Minimal inhibitory concentrations (MIC) have been determined by broth microdilution assays (CLSI. Methods for Dilution Antimicrobial Susceptibility Tests for Bacteria That Grow Aerobically; Approved Standard—Tenth Edition. CLSI document M07-A10. Wayne, Pa.: Clinical and Laboratory Standards Institute; 2015.).
(§2) Table 4 and 5 show the antibacterial activity of the compounds of the invention against bacterial reference strains (table 4) and against representative clinical isolates (table 5).

[1] = test system: SZ380, Mycobacterium smegmatis; assay: MIC reference strain SZ380; format: cell-based; details: Mycolicibacterium smegmatis, reference strain; read-out: MIC SZ380 M. smegmatis
Excerpt: as §1, §2
(§3) Legend to Tables: GEN, gentamicin; AMK, amikacin; PLZ, plazomicin; APR, apramycin; AG212, Escherichia coli ATCC25922; AG215, Klebsiella pneumonia; AG220, Pseudomonas aeruginosa ATCC27853; AG225, Acinetobacter baumannii pittii; AG290, Enterobacter cloacae; […], Mycobacterium smegmatis. MICs for AG192 have been determined in the presence of 0.5 μg/mL of ampicillin in the medium to mimic the synergistic effect of aminoglycoside and β-lactam antibiotics combination therapy in the treatment of Enterococcus infections in humans.

AG003 E. coli AAC(3)-II = assay: Antibacterial activity, clinical isolate AG003; format: cell-based
Excerpt: as §1, §2

AG038 MRSA = assay: Antibacterial activity, clinical isolate AG038; format: cell-based; set-up: unit not given here
Excerpt: as §1, §2

[2] = test system: human mitochondrial ribosomes; assay: in-vitro translation assay, human mitochondrial (human chimeric) ribosomes; format: biochemical
Excerpt: (§4) IC50 values for bacterial, human chimeric, and rabbit reticulocyte ribosomes have been determined by in-vitro translation assays as described previously (Proc. Nat. Ac. Sci USA 2012, 109(27):10984-10989).
(§5) Minimal inhibitory concentrations (MICs, […]) against clinical isolates from Institute of Medical Microbiology, Univ. Zurich, and the IC50 values for bacterial, human mitochondrial and human cytosolic ribosomes are indicated.

AG032 P. aer. APH(3′)-II = assay: Antibacterial activity, clinical isolate AG032; format: cell-based; set-up: unit not given here
Excerpt: as §1, §2

[3] = test system: AG033 P. aer. APH(3′)-II AAC(6′)-I; assay: Antibacterial activity, clinical isolate AG033; format: cell-based; set-up: unit not given here
Excerpt: as §1, §2

AG031 P. aer. APH(3′)-II = assay: Antibacterial activity, clinical isolate AG031; format: cell-based; set-up: unit not given here
Excerpt: as §1, §2

isolates carrying apmA = assay: MIC broth microdilution, apmA; format: cell-based; details: apmA resistance gene
Excerpt: as §1, with “2015.). […]” for “2015.).”
(§6) Minimal inhibitory concentrations (μg/ml) against clinical isolates from Institute of Medical Microbiology, Univ. Zurich, and the IC50 values for bacterial, human mitochondrial and human cytosolic ribosomes are indicated.
(§7) The Minimal inhibitory concentrations (MICs, μg/ml) against clinical isolates from Institute of Medical Microbiology, Univ Zurich, and the IC50 values for bacterial, human mitochondrial and human cytosolic ribosomes are indicated.

[4] = test system: Engineered E. coli pH426 rmtC; assay: Activity against G1405-methylated 16S-rRNA, E. coli pH426 rmtC; format: cell-based
Excerpt: as §1

AG001 E. coli WT = assay: Antibacterial activity, clinical isolate AG001; format: cell-based; set-up: unit not given here
Excerpt: as §1, §2

[5] = test system: AG039 MRSA AAC(6′)-I ANT(4′)-I; assay: Antibacterial activity, clinical isolate AG039; format: cell-based
Excerpt: as §1, §2

[6] = test system: AG220, Pseudomonas aeruginosa ATCC27853; assay: MIC reference strain AG220; format: cell-based; details: Pseudomonas aeruginosa
Excerpt: as §1, §2, §3

ATCC19977 M. abcessus = assay: MIC reference strain ATCC19977; format: cell-based; details: read-out: MIC ATCC19977 M. abcessus
Excerpt: as §1, §2

[7] = test system: human cytosolic ribosomes; assay: in-vitro translation assay, human cytosolic ribosomes; format: biochemical
Excerpt: as §4, §5

[8] = test system: AG290, Enterobacter cloacae; assay: MIC reference strain AG290; format: cell-based; details: Enterobacter cloacae, read-out: MIC AG290 E. cloacae
Excerpt: as §1, §2, §3

[9] = test system: Engineered E. coli AG103 armA; assay: Activity against G1405-methylated 16S-rRNA, E. coli AG103 armA; format: cell-based
Excerpt: as §1

[10] = test system: AG215, Klebsiella pneumonia; assay: MIC reference strain AG215; format: cell-based; details: Klebsiella pneumoniae, read-out: MIC AG215 K. pneumonia
Excerpt: as §1, §2, §3

[11] = test system: AG042 MRSA AAC(6′)-I ANT(4′)-I APH(2′); assay: Antibacterial activity, clinical isolate AG042; format: cell-based; set-up: unit not given here
Excerpt: as §1, §2

[12] = test system: AG225, Acinetobacter baumannii pittii; assay: MIC reference strain AG225; format: cell-based; details: Acinetobacter baumannii, read-out: MIC AG225 A. baumannii
Excerpt: as §1, §2, §3

[13] = test system: AG212, Escherichia coli ATCC25922; assay: MIC reference strain AG212; format: cell-based; details: Escherichia coli
Excerpt: as §1, §2, §3

bacterial ribosomes = assay: in-vitro translation assay, bacterial ribosomes; format: biochemical
Excerpt: as §4, §5

[14] = test system: Engineered E. coli pH424 armA; assay: Activity against G1405-methylated 16S-rRNA, E. coli pH424 armA; format: cell-based
Excerpt: as §1

AG055 E. coli WT = assay: Antibacterial activity, clinical isolate AG055; format: cell-based; set-up: unit not given here
Excerpt: as §1, §2

WT clinical isolates = assay: MIC broth microdilution, WT; format: cell-based; details: read-out: MIC WT, clinical isolates, IMM Univ. Zurich; wild type
Excerpt: as §1, §5, §6, §7

[15] = test system: Engineered E. coli pH430 WT; assay: Activity, engineered E. coli pH430 WT; format: cell-based; details: wild type
Excerpt: as §1

[16] = test system: Engineered E. coli pH427 rmtF; assay: Activity against G1405-methylated 16S-rRNA, E. coli pH427 rmtF; format: cell-based
Excerpt: as §1

[17] = test system: clinical isolates carrying AAC(3)-IV; assay: MIC broth microdilution, AAC(3)-IV; format: cell-based; details: clinical isolates, IMM Univ. Zurich; AAC(3)-IV; read-out: MIC AAC(3)-IV
Excerpt: as §1, §5, §6, §7

[18] = test system: Engineered E. coli pH425 rmtB; assay: Activity against G1405-methylated 16S-rRNA, E. coli pH425 rmtB; format: cell-based
Excerpt: as §1

[19] = ATCC27853, reference strain ATCC27853, read-out: MIC AG220 P. aeruginosa
[20] = reference strain ATCC25922, read-out: MIC AG212 E. coli

| Compound | Antibacterial activity AG003 E. coli AAC(3)-II (AG003 E. coli AAC(3)-II) | Antibacterial activity AG038 MRSA (AG038 MRSA) | IC50 [2] | Antibacterial activity AG032 P. aer. APH(3′)-II (AG032 P. aer. APH(3′)-II) | Antibacterial activity AG033 P. aer. APH(3′)-II AAC(6′)-I [3] | Antibacterial activity AG031 P. aer. APH(3′)-II (AG031 P. aer. APH(3′)-II) | Antibacterial activity AG001 E. coli WT (AG001 E. coli WT) | Antibacterial activity AG039 MRSA AAC(6′)-I ANT(4′)-I [5] | MIC [6, 19] | MIC (ATCC19977 M. abcessus) | IC50 [7] | MIC ([8]; reference strain) | Activity E. coli AG103 armA [9] | MIC ([10]; reference strain) | Antibacterial activity AG042 MRSA AAC(6′)-I ANT(4′)-I APH(2′) [11] | MIC ([12]; reference strain) | MIC [13, 20] | IC50 (bacterial ribosomes) | Antibacterial activity AG055 E. coli WT (AG055 E. coli WT) | MIC (WT clinical isolates) | also measured |
| --- | --- | --- | --- | --- | --- | --- | --- | --- | --- | --- | --- | --- | --- | --- | --- | --- | --- | --- | --- | --- | --- |
| CNC1C(OC2OC(CO)C(N)C(O)C2O)OC2CC(N)C(OC3C(N)CC(N)C(O)C3F)OC2C1O (stereo not shown) [DC170, 5-Deoxy-5-fluoro apramycin] | 8 | 4-8 | 62 µM | 16 | 32 | 8-16 | 8 | 4-8 | 8 µg/mL | 1 µg/mL (≈ 1.85 µM) | 74 µM | 4 µg/mL | 2 | 2 µg/mL | 8 | 4 to 8 µg/mL | 4 µg/mL | 0.06 µM | 4 | 4 µg/mL (≈ 7.39 µM) | Antibacterial activity AG173 E. coli AAC(3)-IV (AG173 E. coli AAC(3)-IV): 64; MIC [1]: 0.25 µg/mL; MIC apmA (isolates carrying apmA): 32 µg/mL (≈ 59.1 µM); Activity E. coli pH426 rmtC [4]: 4; Activity E. coli pH424 armA [14]: 2; Activity E. coli pH430 WT [15]: 4; Activity E. coli pH427 rmtF [16]: 4; MIC [17]: > 32 µg/mL; Activity E. coli pH425 rmtB [18]: 4 |
| CNC1C(OC2OC(CO)C(N)C(O)C2O)OC2CC(N)C(OC3C(N)CC(N)C(O)C3OCC(O)CN)OC2C1O (stereo not shown) [DC212] | – | 4 | 158 µM | – | – | 8 | 8 | – | – | – | 112 µM | – | – | – | – | – | – | 0.1 µM | – | 4 µg/mL (≈ 6.53 µM) | MIC ([6]; ATCC27853, read-out: MIC AG220 P. aeruginosa): 4 µg/mL; MIC [8]: 4 µg/mL; MIC [10]: 2 µg/mL; MIC [12]: 4 µg/mL; MIC ([13]; ATCC25922, read-out: MIC AG212 E. coli): 4 µg/mL |
| CN[C@@H]1[C@@H](O)[C@@H](O[C@@H]2[C@@H](O)[C@H](O[C@H]3OC(CNCCO)=CC[C@H]3N)[C@@H](N)C[C@H]2NC(=O)[C@@H](O)CCN)OC[C@]1(C)O [PLZ, plazomicin, reference compound] | 2-4 | 2-4 | – | 4 | 16-32 | 4 | 2-4 | 2-4 | 2 to 4 µg/mL | 4 µg/mL (≈ 6.75 µM) | – | 0.5 µg/mL | >32 | 0.25 to 0.5 µg/mL | 2 | 2 µg/mL | 0.5 to 1 µg/mL | – | 2-4 | – | Activity E. coli pH430 WT [15]: 0.5 |
